Patent US12527782B2, “Use of hexokinase 2/mitochondria-detaching compounds for treating hexokinase-2 (HK2)-expressing cancers” (Vidac Pharma Ltd., priority 2016, dated 2026)
“And” between values parts separate entries of the source, which are not always exact repeats. Equal entries are not always repeated.

Assays:
[1] = test system: HaCaT normal immortal keratonocytes; assay: XTT cell viability assay, HaCaT; assay type: cell-based, human; details: Cell line/XTT, 72 hr
Protocol: A431 (human skin SCC), HT-297.T (human AK), and HaCaT transformed normal keratinocyte cell lines were from ATCC (Manassas, VA) and were maintained in DMEM supplemented with 10% FCS, 4 mM L-Gln, 1 mM sodium pyruvate, 100 U/mL penicillin, 1 μg/mL streptomycin. Human HK1 and HK2 plasmids were purchased from Addgene (Cambridge, MA) and were purified from E. Coli. VDAC1 was purified from sheep liver mitochondria as described (Arbel et al. 2012, incorporated herein by reference). Human skin tissue microarray (SK208 and SK 805) were purchased from US Biomax Inc. (Rockville, MD).
(§1) For XTT assays, cells were plated in 96-well plates (5,000 cells per well) for 24 hours. Cells were then incubated with different concentrations of Formula C in triplicates for 72 hr in DMEM supplemented with 0.5% FCS and 5 mM Glucose. Cell viability was evaluated using 2,3-bis-(2-methoxy-4-nitro-5-sulfophenyl)-2H-tetrazolium-5-carboxanilide (XTT)-based colorimetric assay kit (Biological Industries Ltd., Kibbutz Beit-Haemek, Israel). The optical density was measured by an Infinite 200 ELISA reader at 450 nm and reference was measured at 630 nm (Tecan, Männedorf, Switzerland).

Stomach GXF 97 = assay: CFA, GXF 97; assay type: cell-based, human; details: PDX/CFA
Protocol: (§2) CFA was performed by Charles River Laboratories (Freiburg, Germany) in 96-well plate format according to a modified two-layer soft agar assay. The origin of the tumor xenografts has been described (Fiebig et al. 1989, incorporated herein by reference). The list of tumors used in this study is detailed in Table 1.

Head & Neck HNXF 2205 = assay: CFA, HNXF 2205; assay type: cell-based, human; details: PDX/CFA
Protocol: as §2

[2] = test system: Leukemia (AML) LEXFAM OCI-AML2; assay: CFA, LEXFAM OCI-AML2; assay type: cell-based, human; details: Cell line/CFA
Protocol: as §2

[3] = test system: Leukemia (AML) LEXFAM PL-21; assay: CFA, LEXFAM PL-21; assay type: cell-based, human; details: Cell line/CFA
Protocol: as §2

[4] = test system: Leukemia (AML) LEXFAM KG-1a; assay: CFA, LEXFAM KG-1a; assay type: cell-based, human; details: Cell line/CFA
Protocol: as §2

[5] = test system: Leukemia (ALL) LEXFAL MOLT-4; assay: CFA, LEXFAL MOLT-4; assay type: cell-based, human; details: Cell line/CFA
Protocol: as §2

[6] = test system: Leukemia (BCLL) LEXFCM MEG-01; assay: CFA, LEXFCM MEG-01; assay type: cell-based, human; details: Cell line/CFA
Protocol: as §2

[7] = test system: Lung (NSCLC, large) LXFL 430; assay: CFA, LXFL 430; assay type: cell-based, human; details: PDX/CFA
Protocol: as §2

[8] = test system: Lung (NSCLC, epidermoid) LXFE 772; assay: CFA, LXFE 772; assay type: cell-based, human; details: PDX/CFA
Protocol: as §2

[9] = test system: Lung (NSCLC, epidermoid) LXFE 937; assay: CFA, LXFE 937; assay type: cell-based, human; details: PDX/CFA
Protocol: as §2

Lung (SCLC) LXFS 2156 = assay: CFA, LXFS 2156; assay type: cell-based, human; details: PDX/CFA
Protocol: as §2

[10] = test system: Lymphoma (Non-Hodgkin) LYXF MY-LA; assay: CFA, LYXF MY-LA; assay type: cell-based, human; details: Cell line/CFA
Protocol: as §2

Breast MAXF 574 = assay: CFA, MAXF 574; assay type: cell-based, human; details: PDX/CFA
Protocol: as §2

Melanoma MEXF 535 = assay: CFA, MEXF 535; assay type: cell-based, human; details: PDX/CFA
Protocol: as §2

Prostate PC-3 = assay: XTT cell viability assay, PC-3; assay type: cell-based, human; details: Cell line/XTT
Protocol: as §1

[11] = test system: Pancreas PAXF Mia-Pa-Ca-2; assay: CFA, PAXF Mia-Pa-Ca-2; assay type: cell-based, human; details: Cell line/CFA
Protocol: as §2

Skin SCC VXF A-431 = assay: CFA, VXF A-431; assay type: cell-based, human; details: Cell line/CFA
Protocol: as §2

Skin SCC SKXF 1834 = assay: CFA, SKXF 1834; assay type: cell-based, human; details: PDX/CFA
Protocol: as §2

[12] = test system: Cutanous T cell lymphoma HH; assay: XTT cell viability assay, HH; assay type: cell-based, human; details: Cell line/XTT
Protocol: as §1

[13] = test system: Cutanous T cell lymphoma MJ; assay: XTT cell viability assay, MJ; assay type: cell-based, human; details: Cell line/XTT
Protocol: as §1

A431 cells = assay: Apoptosis: cleaved caspase-3 ELISA, A431 cells; assay type: cell-based, human; details: within 6 hours of treatment
Protocol: Apoptosis induction was determined by semi-quantification of cytochrome C levels in the mitochondrial fraction analyzed by WB, following 2 hours of treatment with Formula C in A431 cells. Cleaved caspase-3 levels were analyzed following 6 hours of Formula C treatment in A431 cells, using PathScan® Cleaved Caspase-3 Sandwich ELISA kit (CST, Danvers, MA).

CTCL cell line Hut-78 = assay: PrestoBlue cell viability, Hut-78; assay type: cell-based, human; details: 72 hours
Protocol: Cutaneous T-cell lymphoma (CTCL) cell lines MJ and Hut78 were purchased from ATCC (CRL-8294, and TIB-161, respectively). Cells were grown in Iscove's Modified Dulbecco's Media supplemented with 2 mM L-glutamine, 10% fetal bovine serum, 100 U/mL of penicillin and 0.1 mg/mL of streptomycin.
Cells (1-2×10^4) were seeded in 96-well plates and treated with Formula C. Cell viability was determined 72 hours later using PrestoBlue reagent according to manufacturer's instruction (Life Technologies). The percentage of viability was expressed according to the fluorescence emitted by Formula C-treated cells compared to DMSO-treated control cells. The florescence emission values at 590 nm were measured with the plate-reader Spark 10M—multimode microplate reader (TECAN).

[14] = Phase 2a in subjects with actinic keratosis, safety; assay type: in vivo, human
Protocol: The Phase 2 clinical trial was a multiple-center randomized, double-blind, placebo-controlled, parallel-cohorts study to evaluate the efficacy, safety, tolerability, and pharmacokinetics of once-daily application of topical Formula C ointment (QD 200 mg) for 28 days in subjects with actinic keratosis. Subjects were followed for one or two months after they completed treatment (through day 56 or day 84). The primary and exploratory efficacy endpoints for the study were reduction in the number of lesions on days 56 and 84, respectively. Subjects were randomly assigned in a double-blind fashion to one of three parallel treatment cohorts (5%, or 10% Formula C, or placebo) at a ratio of 1:1:1. To qualify for the study, subjects aged 18 (inclusive) or older must have had 4-8 discrete Grade 1 or 2 AK lesions within a 25-centimeter squared area of the skin of their scalp or face. The study enrolled 93 subjects in the US and Israel.

Compound: CC/C=C\CC1C(=O)CCC1CC(=O)Oc1cccc2cccnc12 (stereo not shown) [Formula C]
- IC50 [1]: 3.37 µM
- IC50 (Stomach GXF 97): 6.45 µM
- IC50 (Head & Neck HNXF 2205): 3.96 µM
- IC50 [2]: 985 nM
- IC50 [3]: 1740 nM
- IC50 [4]: 1920 nM
- IC50 [5]: 2280 nM
- IC50 [6]: 2760 nM
- IC50 [7]: 237 nM
- IC50 [8]: 3.78 µM
- IC50 [9]: 5.57 µM
- IC50 (Lung (SCLC) LXFS 2156): 3.56 µM
- IC50 [10]: 1000 nM
- IC50 (Breast MAXF 574): 5.41 µM
- IC50 (Melanoma MEXF 535): 538 nM
- IC50 (Prostate PC-3): 1200 nM
- IC50 [11]: 1970 nM
- IC50 (Skin SCC VXF A-431): 364 nM
- IC50 (Skin SCC SKXF 1834): 742 nM
- IC50 [12]: 604 nM
- IC50 [13]: 1470 nM
- cellular levels of cleaved caspase-3 (A431 cells): increase in cellular levels of cleaved caspase-3
- IC50 (CTCL cell line Hut-78): 1060 nM
- serious adverse events (deemed unrelated) ([14]; 5% group): 1 elective surgery
- treatment-emergent AEs deemed related to the study drug ([14]; 5% group, listed as VDA-1102): 1 mild dyspepsia and 1 mild hypopigmentation
- serious adverse events (deemed unrelated) ([14]; 10% group): 1 acute pneumonia
- clinically significant changes at application sites (Local Skin Reactions), vital signs, physical examinations, clinical laboratory results, ECGs ([14]; any subject, any time point): No clinically significant changes
- safety signals ([14]; subjects with AK, 5% or 10% ointment QD 28 days): No safety signals
